This note sets out measurements from patent US12195434B2, “Process for the preparation of a chiral prostaglandin enol intermediate and intermediate compounds useful in the process” (EUROAPI HUNGARY LIMITED LIABILITY COMPANY, priority 2019, dated 2025).

A short description of the data set: solubility of the PPB-enone isomers in crystallization solvents. Type of data set: physicochemical. As to the method: The solubility (g/100 ml) of the PPB-enone isomers in some of the solvents with which crystallization was attempted is shown below: […]

Regarding `Cc1cccc([C@@H](C)C(=O)/C=C/[C@@H]2[C@H]3CC(=O)O[C@H]3C[C@H]2OC(=O)c2ccc(-c3ccccc3)cc2)c1` [16-(R)-PPB-enone, [(3aR,4R,5R,6aS)-4-[(E,4R)-4-(m-tolyl)-3-oxo-pent-1-enyl]-2-oxo-3,3a,4,5,6,6a-hexahydrocyclopenta[b]furan-5-yl] 4-phenylbenzoate], the solubility entry (DIPE, 23° C.) is on record as “in-”; the solubility entry (DIPE, Reflux) was “in-”; the solubility (EtOH, 23° C.) stood at 0.43 g/100 ml; the solubility (EtOH, Reflux) worked out at 4.00 g/100 ml; the solubility (MeOH, 23° C.) was found to be 0.45 g/100 ml; the solubility (MeOH, Reflux) came to 5.00 g/100 ml. The solubility reads like this: (TBME, 23° C.) 0.71 g/100 ml; (TBME, Reflux) 8.00 g/100 ml; (iPrOH, 23° C.) 0.18 g/100 ml; (iPrOH, Reflux) 2.22 g/100 ml.

Consider `Cc1cccc(C(C)C(=O)/C=C/[C@@H]2[C@H]3CC(=O)O[C@H]3C[C@H]2OC(=O)c2ccc(-c3ccccc3)cc2)c1` (stereo partly drawn) [16-(R,S)-PPB-enone, [(3aR,4R,5R,6aS)-4-[(E)-4-(m-tolyl)-3-oxo-pent-1-enyl]-2-oxo-3,3a,4,5,6,6a-hexahydrocyclopenta[b]furan-5-yl] 4-phenylbenzoate], for which the solubility result is “insoluble” (DIPE, 23° C.); “in-” (DIPE, Reflux); “insoluble” (EtOH, 23° C.); 0.77 g/100 ml (EtOH, Reflux); “insoluble” (MeOH, 23° C.); 0.91 g/100 ml (MeOH, Reflux). Besides, the solubility by setting is: (TBME, 23° C.) 0.14 g/100 ml; (TBME, Reflux) 0.33 g/100 ml; (iPrOH, 23° C.) “insoluble”; (iPrOH, Reflux) 0.80 g/100 ml.

Regarding `Cc1cccc([C@H](C)C(=O)/C=C/[C@@H]2[C@H]3CC(=O)O[C@H]3C[C@H]2OC(=O)c2ccc(-c3ccccc3)cc2)c1` [16-(S)-PPB-enone, [(3aR,4R,5R,6aS)-4-[(E,4S)-4-(m-tolyl)-3-oxo-pent-1-enyl]-2-oxo-3,3a,4,5,6,6a-hexahydrocyclopenta[b]furan-5-yl] 4-phenylbenzoate], the solubility entry was “insoluble” (DIPE, 23° C.); 0.2 g/100 ml (DIPE, Reflux); “insoluble” (EtOH, 23° C.); 0.33 g/100 ml (EtOH, Reflux); “insoluble” (MeOH, 23° C.); 0.33 g/100 ml (MeOH, Reflux). Also, the solubility result is reported as “insoluble” (TBME, 23° C.); 0.13 g/100 ml (TBME, Reflux); “insoluble” (iPrOH, 23° C.); 0.29 g/100 ml (iPrOH, Reflux).
